Experimental data as given in PubChem BioAssay (NCI).
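A five-concentration, 48-hour dose response in 96-well plates underlies each endpoint, interpolated linearly between surrounding concentrations. GI50: concentration for 50% inhibition of growth. TGI is the concentration that stops growth completely.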

Key:
Assay in all cases: inhibition of tumour cell growth, NCI panel, 48 h
MOLT-4 leukemia = system: MOLT-4 leukemia
TK-10 renal = system: TK-10 renal
HCT-15 colon = system: HCT-15 colon
SK-MEL-5 melanoma = system: SK-MEL-5 melanoma
SNB-75 CNS = system: SNB-75 CNS
MDA-MB-231 breast = system: MDA-MB-231 breast
HCC-2998 colon = system: HCC-2998 colon
RXF 393 renal = system: RXF 393 renal
CAKI-1 renal = system: CAKI-1 renal
A498 renal = system: A498 renal

Row | SMILES | GI50 (MOLT-4 leukemia) [µM] | TGI (MOLT-4 leukemia) [µM] | GI50 (TK-10 renal) [µM] | TGI (TK-10 renal) [µM] | GI50 (HCT-15 colon) [µM] | TGI (HCT-15 colon) [µM] | GI50 (SK-MEL-5 melanoma) [µM] | TGI (SK-MEL-5 melanoma) [µM] | GI50 (SNB-75 CNS) [µM] | TGI (SNB-75 CNS) [µM] | GI50 (MDA-MB-231 breast) [µM] | TGI (MDA-MB-231 breast) [µM] | GI50 (HCC-2998 colon) [µM] | TGI (HCC-2998 colon) [µM] | GI50 (RXF 393 renal) [µM] | TGI (RXF 393 renal) [µM] | GI50 (CAKI-1 renal) [µM] | TGI (CAKI-1 renal) [µM] | GI50 (A498 renal) [µM] | TGI (A498 renal) [µM]
1 | COC(=O)c1c2c(c(C)[n+]([O-])c1C)C(=O)C(NCc1ccc(OC)cc1)=CC2=O | 2.36 | 6.63 | 4.62 | 20.1 | 1.64 | 3.72 | 1.13 | 2.39 | 3.5 | 14.3 | 2.2 | 6.14 | 2.27 | 5.94 | 1.55 | 3.7 | 2.9 | 11.2 | 2.06 | 4.97
2 | CC1(C)N=C(N)N=C(N)N1c1ccc(OCCCNC(=O)Nc2ccc(S(=O)(=O)F)cc2)c(Cl)c1 | 0.386 | > 100 | 0.907 | > 100 | 6.62 | > 100 | 0.146 | 13.3 | 1.02 | 50 | 3.34 | > 100 | 0.832 | > 100 | 12.9 | > 100 | 17.9 | > 95 | 4.57 | 99.4
3 | COc1cccc2c1nc(C(F)F)n2-c1nc(-c2ccc(NS(=O)(=O)CCN(C)C)cc2)nc(N2CCOCC2)n1 | 0.123 | 3.71 | 0.0597 | 0.615 | 0.152 | 5.06 | 0.204 | 1.76 | 0.0246 | 0.282 | 0.617 | 37.2 | 0.0974 | 17.4 | 0.105 | 0.58 | 0.168 | 4.69 | 0.0337 | 0.279
4 | ClC1=C(Cl)C(Cl)(C2(Cl)C(Cl)=C(Cl)C(Cl)=C2Cl)C(Cl)=C1Cl | 0.242 | 2.31 | 0.201 | 0.462 | 0.214 | 0.552 | 1.27 | 2.73 | 1.63 | 4.46 | 0.383 | 1.42 | 2.13 | 4 | 0.186 | 0.396 | 0.265 | 0.832 | 1.71 | 3.19
5 | COC(=O)[C@@H](C)C[C@H](Cc1ccccc1)NC(=O)c1nc([C@@H](C[C@H](C(C)C)N(C)C(=O)[C@@H](NC(=O)[C@H]2C[C@H](O)CCN2C)C(C)C)OC(C)=O)sc1C(C)C | 0.0117 | > 11.1 | 0.319 | > 11.1 | 0.284 | > 11.1 | 0.00369 | 0.185 | 0.00462 | 3.85 | 0.0067 | 0.458 | 0.00353 | 4.52 | 0.025 | > 11.1 | 0.115 | > 9.69 | 0.00752 | 0.0881
6 | CN1C(=O)C(c2c[nH]c3ccccc23)=C(c2c[nH]c3ccccc23)C1=O | 7.83 | > 25 | 12.5 | > 25 | 5.77 | > 25 | 4.5 | 10.9 | 4.26 | > 25 | 4.22 | 15.8 | 5.46 | 13.1 | 4.41 | 12.8 | 3.92 | 12.1 | 3.55 | 17.2
7 | Cc1c2cnccc2c(C)c2c1c1ccccc1n2CCOC(=O)c1ccccc1 |  | 25.4 |  | 40.9 |  | 59.2 |  | 38.9 |  | 44.7 |  | > 100 |  | 29.8 |  | 27.3 |  | 28 |  | 32.2
8 | CC(C)=CC[C@@H]1CC2(CC=C(C)C)C(=O)C(OC3(C(=O)c4ccccc4)C(=O)C4(CC=C(C)C)C[C@@H](CC=C(C)C)C(C)(C)C(CC=C(C)C)(C4=O)C3=O)(C(=O)c3ccccc3)C(=O)C(CC=C(C)C)(C2=O)C1(C)C (some centres undefined) | 1.3 | 4.51 | 1.54 | 8.04 | 1.41 | 5.23 | 0.806 | 1.58 | 1.11 | 5.62 | 1.49 | 4.12 | 1.21 | 3.09 | 1.13 | 2.69 | 1.49 | 5.95 | 1.01 | 2.09
9 | Sc1cccc2cccnc12 | 0.55 | 19.7 | 4.16 | 15.6 | 0.427 | 14.4 | 0.822 | 4.25 | 2.72 | 11.6 | 1.36 | 14.7 | 3.49 | 16.2 | 1.4 | 8.28 | 1.67 | 14.5 | 2.45 | 8.8
10 | N#CC1=C(N)Oc2c(sc3c(Br)cccc23)C1c1ccc([N+](=O)[O-])cc1 (centres undefined) | 0.223 | 6.07 | 2.32 | 20 | 0.0948 | 10.5 | 0.0652 | 4.45 | 0.0595 | 8.41 | 0.514 | 9.67 | 0.284 | 6.94 | 0.036 | 2.23 | 0.0837 | 16.9 | 0.0434 | 0.935
11 | O=c1c2ccccc2nc(-c2cccc([N+](=O)[O-])c2)n1O |  | > 100 |  | > 100 |  | > 100 |  | > 100 |  | > 100 |  | > 100 |  | > 100 |  | > 100 |  | > 100 |  | > 85.1
12 | O=C(N/N=C/c1ccc(Cl)cc1)c1ccc(NC(=O)c2ccccn2)cc1 | > 100 | > 100 | 16.6 | 46.8 | 42.1 | > 100 | 8.76 | 41.8 | 5.52 | 24.9 | 27.3 | > 100 | > 100 | > 100 | 15.4 | 63.3 | 21.1 | > 100 | 44.9 | > 100
13 | Nc1ccc(/C=C/c2ccc3ncccc3c2)cc1 | > 100 | > 100 | 86.5 | > 100 | > 100 | > 100 | > 100 | > 100 | 37.1 | > 100 | 2.09 | > 100 | > 100 | > 100 | 73.2 | > 100 |  | > 100 | > 100 | > 100
